Results from US10258614B2, “Compositions and methods for treating schizophrenia” (priority 2014, dated 2019).
Where “and” joins values, the source holds several entries; their conditions need not be identical. Equal entries are not always repeated. Structures can show the parent of a compound that is named as a salt. Where two headings read alike, the source gives them in different places.

Legend:
[1] = system: human P450 isoforms (CYP1A2, 2A6, 2B6, 2C8/9, 2C19, 2E1 and 3A4); test: Inhibition of human P450 isoforms; assay type: in vitro ADME
sigma2 receptors [2] = biological target: sigma2 receptors (Homo sapiens, UniProt Q5BJF2); test: In vitro receptor binding studies
DA receptors = test: In vitro receptor binding studies; settings: read-out: IC50 (affinity for DA receptors)
[3] = system: PCP-induced social interaction impairment; test: PCP-induced social interaction impairment; assay type: in vivo, male Wistar rats; settings: after repeated administration
in vivo [4] = test: in vivo; set-up: species or system rats; settings: rat
Method: (§1) Pharmacokinetic (PK) studies of Compound (I) have been performed particularly in rats and monkeys. Following a single oral administration, Compound (I) was rapidly absorbed. Plasma radioactivity peaked between 0.63 and 2.75 hours in male rats, and between 3 and 3.5 hours in male monkeys. […] The elimination half-lives of radioactivity from plasma were 45.13 to 51.52 hours in rats and 174.74 to 184.78 hours in monkeys. The elimination half-lives of unchanged Compound (I) were 1.68 to 2.06 hours in rats, and 1.68 to 2.57 hours in monkeys.
Food and gender effects were also assessed in rats.
(§2) The major route of elimination of radioactivity in rats and monkeys following a single oral or intravenous administration was via the feces. The excretion to bile was 44.2% within 48 hours after a single oral administration to bile duct cannulated rats. Urinary excretion rates of radioactivity were about 35% in rats and monkeys. […] The enterohepatic circulation rate was determined to be about 27% after intraduodenal administration of bile samples from ^14C-Compound (I)-treated rats.

[5] = system: methamphetamine-induced hyperlocomotion; test: Methamphetamine-induced hyperlocomotion; assay type: in vivo, male Wistar rats; settings: for methamphetamine-induced hyperlocomotion: male Wistar rats
Method: (§3) Compound (I) was tested in male Wistar rats in several behavioral paradigms designed to evaluate the potential for producing antipsychotic activity of drugs in humans. Compound (I) inhibited methamphetamine-, apomorphine-, and phencyclidine-induced hyperlocomotion in a similar manner to other antipsychotics.

[6] = system: apomorphine-induced hyperlocomotion; test: Apomorphine-induced hyperlocomotion; assay type: in vivo; settings: male Wistar rats
Method: as §3

5-HT2A receptors [7] = test: In vivo functional tests
Text: (§4) In in vivo functional tests, Compound (I) acted as an antagonist at sigma2 and 5-HT2A receptors.

sigma2 receptors [8] = test: In vivo functional tests
Text: as §4

al-adrenergic receptors = test: In vitro receptor binding studies
[9] = system: phencyclidine-induced hyperlocomotion; test: Phencyclidine-induced hyperlocomotion; assay type: in vivo; settings: male Wistar rats
Method: as §3

in vivo [10] = test: in vivo; set-up: species or system male rats; settings: rat, po, 10 mg/kg
Method: (§5) After single administration of BFB-520 in monkeys, exposure levels of BFB-520, Compound (I) and BFB-999 increased with a dose increment larger than the proportionate one. […] Finally, the brain transfer of Compound (I) was studied with male rats after oral administration (10 mg/kg). […] The Kp value (brain/plasma concentration ratio) was 1.38 mL/g.

CYP2D6 = CYP2D6 (Homo sapiens, UniProt P10635); test: Inhibition of human P450 isoforms; assay type: in vitro ADME
in vivo [11] = test: in vivo; set-up: species or system monkeys; settings: monkey
Method: as §1, §5, §2

[12] = system: human liver microsomes, cytochromes P450
[13] = system: spontaneous alternation behavior impairment induced by MK-801; test: Impairment of spontaneous alternation behavior induced by MK-801; set-up: species or system male Wistar rats; settings: rat, in vivo
rats = test: Safety pharmacology studies (general activity and behavior, CNS, respiratory, gastrointestinal, water and electrolyte excretion); assay type: in vivo
Method: In a series of safety pharmacology studies, the effects of Compound (I) on general activity and behavior, the CNS, respiratory function, gastrointestinal system, and water and electrolyte excretion were examined in rats at an oral dose range of 1 to 30 mg/kg Compound (I) induced various changes in general activity and behavior. These clinical signs were observed between 0.25 to 4 hours post-dosing and disappeared by 6 hours post-dosing. Compound (I) inhibited CNS function and decreased thresholds for electroshock-induced convulsion.

5-HT2A receptors [14] = biological target: 5-HT2A receptors (Homo sapiens, UniProt P28223); test: In vitro receptor binding studies
IKr current = IKr current (Homo sapiens, UniProt Q12809); test: In vitro electrophysiology, cultured cells expressing cloned cardiac ion channels
Text: (§6) The effects of Compound (I) on the cardiovascular system were examined in in vitro and in vivo studies.

[15] = system: dopamine turnover, DA metabolites DOPAC and HVA; test: Dopamine turnover and DA metabolite output after oral administration; assay type: in vivo
Text: as §4

sleep architecture = test: CYR-101C01 Phase 2a study, sleep recordings (PSG) and PSQI; assay type: in vivo, human
[16] = Part 1 single dose MR formulation pharmacokinetic study in healthy CYP2D6 EM male subjects; assay type: in vivo, human; set-up: Cmax increase, food effect: unit not given beside the values; settings: for AUC(0-t) / Cmax / half-life: plasma
Text: Part 1 of this study was designed to characterize and compare the pharmacokinetic (PK) profile of Compound (I) when administered as MR formulations, and food effects, following a single dose administration in a 6-way, within subject, crossover design.
Part 1 of the study is an open-label, non-randomized, single dose, 6-period crossover design in 12 healthy CYP 2D6 EM male subjects. For Part 1, subjects will receive the following regimens in a non-randomised manner:
Regimen A: MR Formulation prototype 1: 32 mg Compound (I) slow release administered in the fasted state
A Two-Part Study Designed to Evaluate the Pharmacokinetic Profile of Compound (I) and its Main Metabolites Following Single and Multiple Dose Modified Release Prototype Formulation Administration in Healthy CYP2D6 Extensive Metabolizer Male and Female Subjects, and to Evaluate the Relationship Between the Pharmacokinetic Profile of Compound (I) and its Main Metabolites and Cardiovascular Parameters.

QT/QTc interval = test: Analysis of relationship between QT/QTc and plasma concentrations; assay type: in vivo, human
Method: Increases in QTc interval were observed and seemed to be related to the exposure to Compound (I) and its metabolite BFB-520. […] A further analysis of the relationship between QT/QTc and Compound (I) and BFB-520 concentrations was performed.

[17] = system: guinea pig papillary muscle
Text: as §6

Chain of IKr current (Q12809 whole entry): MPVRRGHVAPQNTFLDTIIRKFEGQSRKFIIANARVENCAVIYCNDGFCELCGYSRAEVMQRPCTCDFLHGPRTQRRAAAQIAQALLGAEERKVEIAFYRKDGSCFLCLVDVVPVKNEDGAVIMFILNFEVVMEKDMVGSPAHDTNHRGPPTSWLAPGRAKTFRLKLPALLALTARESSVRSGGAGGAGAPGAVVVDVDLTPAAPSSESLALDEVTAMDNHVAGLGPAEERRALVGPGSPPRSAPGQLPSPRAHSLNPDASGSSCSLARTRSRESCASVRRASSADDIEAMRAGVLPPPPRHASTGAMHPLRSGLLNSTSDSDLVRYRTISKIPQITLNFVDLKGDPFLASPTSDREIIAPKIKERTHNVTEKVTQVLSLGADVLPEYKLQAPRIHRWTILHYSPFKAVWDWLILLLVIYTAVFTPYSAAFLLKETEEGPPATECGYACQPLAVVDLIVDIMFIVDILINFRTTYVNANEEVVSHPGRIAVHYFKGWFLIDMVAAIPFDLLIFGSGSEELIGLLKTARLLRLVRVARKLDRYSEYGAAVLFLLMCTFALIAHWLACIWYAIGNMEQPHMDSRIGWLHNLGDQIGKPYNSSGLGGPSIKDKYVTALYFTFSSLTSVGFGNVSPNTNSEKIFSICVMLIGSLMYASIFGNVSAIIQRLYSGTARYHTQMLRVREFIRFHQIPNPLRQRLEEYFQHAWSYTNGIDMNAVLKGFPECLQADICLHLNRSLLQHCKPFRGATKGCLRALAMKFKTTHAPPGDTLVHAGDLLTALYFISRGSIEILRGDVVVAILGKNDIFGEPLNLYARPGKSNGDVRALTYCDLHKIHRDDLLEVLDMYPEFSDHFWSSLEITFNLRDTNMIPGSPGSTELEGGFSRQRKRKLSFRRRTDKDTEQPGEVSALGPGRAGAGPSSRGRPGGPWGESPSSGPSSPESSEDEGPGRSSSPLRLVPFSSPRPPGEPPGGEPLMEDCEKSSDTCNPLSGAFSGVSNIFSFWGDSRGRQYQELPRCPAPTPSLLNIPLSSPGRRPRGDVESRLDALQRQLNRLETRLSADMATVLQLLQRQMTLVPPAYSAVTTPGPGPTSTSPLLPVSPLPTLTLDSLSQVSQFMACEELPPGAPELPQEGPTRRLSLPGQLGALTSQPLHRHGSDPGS
Chain of 5-HT2A receptors (Homo sapiens, UniProt P28223) (P28223 whole entry): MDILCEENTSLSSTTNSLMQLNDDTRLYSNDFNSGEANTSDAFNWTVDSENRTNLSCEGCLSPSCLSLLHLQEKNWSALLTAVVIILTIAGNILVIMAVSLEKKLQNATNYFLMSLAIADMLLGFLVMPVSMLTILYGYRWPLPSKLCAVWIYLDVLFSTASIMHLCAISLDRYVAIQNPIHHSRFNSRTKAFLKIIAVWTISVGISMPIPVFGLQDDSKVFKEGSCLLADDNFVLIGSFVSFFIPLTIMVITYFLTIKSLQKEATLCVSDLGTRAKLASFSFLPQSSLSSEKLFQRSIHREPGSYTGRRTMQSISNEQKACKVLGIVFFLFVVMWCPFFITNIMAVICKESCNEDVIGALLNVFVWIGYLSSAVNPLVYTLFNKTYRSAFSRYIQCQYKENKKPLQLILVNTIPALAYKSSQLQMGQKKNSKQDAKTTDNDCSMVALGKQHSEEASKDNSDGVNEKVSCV
Chain of sigma2 receptors (Homo sapiens, UniProt Q5BJF2) (Q5BJF2 whole entry): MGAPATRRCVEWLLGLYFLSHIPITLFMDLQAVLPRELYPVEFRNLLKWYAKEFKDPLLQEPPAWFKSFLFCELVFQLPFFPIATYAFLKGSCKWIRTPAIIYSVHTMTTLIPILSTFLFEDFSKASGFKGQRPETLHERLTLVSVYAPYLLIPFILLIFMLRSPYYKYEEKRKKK
Chain of CYP2D6 (P10635 whole entry, canonical isoform): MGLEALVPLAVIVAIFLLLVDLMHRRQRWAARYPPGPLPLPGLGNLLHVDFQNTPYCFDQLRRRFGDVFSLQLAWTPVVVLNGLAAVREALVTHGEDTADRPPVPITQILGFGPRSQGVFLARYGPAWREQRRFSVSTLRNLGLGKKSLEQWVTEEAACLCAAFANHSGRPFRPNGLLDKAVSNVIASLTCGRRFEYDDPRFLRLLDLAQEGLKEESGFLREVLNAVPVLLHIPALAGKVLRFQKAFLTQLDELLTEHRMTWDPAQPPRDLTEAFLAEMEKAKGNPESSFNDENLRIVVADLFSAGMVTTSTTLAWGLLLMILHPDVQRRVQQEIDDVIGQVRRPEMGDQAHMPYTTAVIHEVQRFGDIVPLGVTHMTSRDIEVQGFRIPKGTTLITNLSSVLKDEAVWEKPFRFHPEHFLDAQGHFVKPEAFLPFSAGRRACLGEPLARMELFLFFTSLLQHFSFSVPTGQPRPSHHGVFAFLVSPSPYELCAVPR

In the case of `O=C(CN1CCC(CN2Cc3ccccc3C2=O)CC1)c1ccc(F)cc1` [Compound (I), 2-((1-(2-(4-Fluorophenyl)-2-oxoethyl)piperidin-4-yl)methyl)isoindolin-1-one monohydrochloride dihydrate], the “inhibitory effects on human P450 isoforms (CYP1A2, 2A6, 2B6, 2C8/9, 2C19, 2E1 and 3A4)” value [1] is reported as “No remarkable inhibitory effects”, the Ki (sigma2 receptors [2]; sigma2 receptor) is reported as 8.19 nM and the IC50 (DA receptors) is reported as greater than 1000 nM. For the same compound, the “PCP-induced social interaction impairment” value [3] was “significantly ameliorated”, the “recovery of given radioactivity in carcass” value (in vivo [4]; male, 168 h) was 0.7% and the “time of peak plasma radioactivity” value (in vivo [4]; male, po) was 0.63 to 2.75 h. The enterohepatic circulation rate (in vivo [4]) was “about 27%”, the “pharmacokinetic parameters for total radioactivity, female vs male rats” value (in vivo [4]) was “comparable” and the “urinary excretion rate of radioactivity” value (in vivo [4]) was “about 35%”. For the same compound, the bioavailability (in vivo [4]; po) was 52.4 to 64.5%, the half-life (in vivo [4]; po) was 101 to 124 min and the oral absorption rate (in vivo [4]; po) was 90.3-94.7%. The transfer into milk (in vivo [4]; po) was “rapidly transferred into milk and were slowly eliminated”, the methamphetamine-induced hyperlocomotion [5] was “inhibited” and the apomorphine-induced hyperlocomotion [6] was “inhibited”. For the same compound, the “functional activity at 5-HT2A receptors” value (5-HT2A receptors [7]) was “antagonist”, the “functional activity at sigma2 receptors” value (sigma2 receptors [8]) was “antagonist” and the Ki (al-adrenergic receptors) was 14.4 nM. The phencyclidine-induced hyperlocomotion [9] was “inhibited”, the Cmax (in vivo [10]; male) was 3160 ng/mL and 4950 ng/g and the “Kp value (brain/plasma concentration ratio)” value (in vivo [10]) was 1.38 mL/g. The “inhibitory effect on CYP2D6” value (CYP2D6) was “weak inhibitory effect”, the “time of peak plasma radioactivity” value (in vivo [11]; male, po) was 3 to 3.5 h and the “urinary excretion rate of radioactivity” value (in vivo [11]) was “about 35%”. The bioavailability (in vivo [11]; po) was no less than 90%, the half-life (in vivo [11]; po) was 101 to 154 min and the oral absorption rate (in vivo [11]; po) was 70.0-99.9%. For the same compound, the metabolizing enzymes [12] was “mainly metabolized by enzymatic reaction other than CYP isoforms”, the “impairment of spontaneous alternation behavior induced by MK-801” value [13] was “improved” and the CNS function (rats; oral 1 to 30 mg/kg) was “inhibited”. The “thresholds for electroshock-induced convulsion” value (rats; oral 1 to 30 mg/kg) was “decreased”, the “time by which clinical signs disappeared post-dosing” value (rats; oral 1 to 30 mg/kg) was no more than 6 h and the “effects at high doses” value (rats; oral, high doses (>10 mg/kg)) was “affected respiratory function, inhibited gastric emptying, damaged the gastrointestinal membrane, decreased urine volume, and increased urine potassium excretion”. For the same compound, the Ki (5-HT2A receptors [14]; 5-HT2A receptor) was 7.53 nM, the IC50 (IKr current) was 325 nM and the monoamine levels ([15]; effective dose levels in animal models of antipsychotic activity) was “did not affect”. For the same compound, the “dopamine turnover in the accumbens and striatum” value ([15]; oral administration) was “slightly increased”, the “output of DA metabolites such as DOPAC and HVA in prefrontal cortex” value ([15]; oral, high dose levels) was “increased the output” and the “sleep initiation parameters (sleep onset latency, latency to persistent sleep)” value (sleep architecture; patients) was “improved”. For the same compound, the “slow wave sleep (SWS) in the first third of the night” value (sleep architecture; patients, PSG) was “significantly increased”, the “slow wave sleep (SWS) in the last third of the night” value (sleep architecture; patients, PSG) was “decreased” and the “subjective sleep quality as measured by PSQI” value (sleep architecture; vs placebo) was “improvement was greater with Compound (I) than with placebo although not statistically significant”. The “dose proportionality of PK” value ([16]; MR formulation under fasted conditions) was “generally dose proportional”, the “Cmax increase, food effect” value ([16]; MR formulation, fed vs fasted) was roughly 2 × and the “Half-life Fed to Fasted ratio” value ([16]; MR formulation, fed vs fasted) was 0.5. For the same compound, the “Tiag, Median” value ([16]; Period 1, 32 mg Slow Release, Fasted, plasma analyte) was 0 h, the Tmax ([16]; male, human, oral, Period 1, 32 mg Slow Release, Fasted, plasma analyte, read-out: Tmax, Median) was 2.25 h and the AUC(0-t) ([16]; male, human, oral, 32 mg, Period 1, 32 mg Slow Release, Fasted, plasma analyte, read-out: AUClast, Mean) was 212 ng·h/mL. For the same compound, the AUC(0-t) ([16]; male, human, oral, 32 mg, Period 1, 32 mg Slow Release, Fasted, plasma analyte, read-out: AUClast, Median) was 220 ng·h/mL, the Cmax ([16]; male, human, oral, 32 mg, Period 1, 32 mg Slow Release, Fasted, plasma analyte, read-out: Cmax, Mean) was 22.5 ng/mL and the Cmax ([16]; male, human, oral, 32 mg, Period 1, 32 mg Slow Release, Fasted, plasma analyte, read-out: Cmax, Median) was 23.7 ng/mL. The half-life ([16]; male, human, oral, 32 mg, Period 1, 32 mg Slow Release, Fasted, plasma analyte, read-out: t½, Mean (converted)) was 375 min, the half-life ([16]; male, human, oral, 32 mg, Period 1, 32 mg Slow Release, Fasted, plasma analyte, read-out: t½, Median (converted)) was 321 min and the half-life ([16]; male, human, oral, MR formulation under fasted conditions, read-out: Half-life) was 180 to 480 min. The Cmax (QT/QTc interval; human plasma, read-out: Cmax that should not be exceeded to avoid QT prolongation) was no more than 80 ng/mL.
With `O=C1c2ccccc2CN1CC1CCN(CC(O)c2ccc(F)cc2)CC1` (stereo not drawn) [BFB-520] the “affinity for σ2 receptors compared with Compound (I)” value (sigma2 receptors [2]) was “lower affinity”, the methamphetamine-induced hyperlocomotion [5] was “inhibited” and the “ED50 compared with Compound (I)” value ([5]; methamphetamine-induced hyperlocomotion) was “higher than that of Compound (I)”. For the same compound, the “time to maximum concentration post-dosing” value (in vivo [11]) was no more than 4 h, the metabolizing enzymes [12] was “metabolized by CYP2D6 and CYP3A4” and the “affinity for 5-HT2A receptors compared with Compound (I)” value (5-HT2A receptors [14]) was “lower”. The IC50 (IKr current) was 181 nM, the “concentration that prolonged the action potential duration (APD)” value [17] was no less than 0.1 µM and the “Half-life Fed to Fasted ratio” value ([16]; human, in vivo) was 0.8. The “dose proportionality of PK” value ([16]; human, in vivo) was “less so” and the “Cmax that should not be exceeded to avoid QT prolongation” value (QT/QTc interval; human, in vivo) was no more than 12 ng/mL.
